In patent publication US10072021B2, “Compound for inhibiting binding between DX2 protein and P14/ARF protein, and pharmaceutical composition for treating or preventing cancer disease containing same as effective ingredient” (PUSAN NATIONAL UNIVERSITY INDUSTRY-UNIVERSITY COOPERATION …, priority 2014, dated 2018):
“Also recorded” adds a separate entry of the source.

Experiments:
[1] = system: H128 cells (SCLC cell line); assay: MTT viability of H128 cells; assay type: cell-based, human; settings: MTT assay, FIG. 7
Description: By MTT assay, anticancer effects were confirmed based on viability of tumor cells. That is, cells were incubated in 0.5 mg/ml of MTT solution for 4 hours at a temperature of 37° C. for a reaction, and then, formazen products formed therefrom were dissolved in dimethyl sulfoxide (DMSO). Then, absorbance thereof was measured at 540 nm by using a spectrometer.

[2] = biological target: T1, DX2-AIMP2 binding (Homo sapiens, UniProt Q13155); assay: Protein binding assay using His-DX2 protein; settings: FIG. 2C
T1 sequence (Q13155 1-251 isoform Q13155-2): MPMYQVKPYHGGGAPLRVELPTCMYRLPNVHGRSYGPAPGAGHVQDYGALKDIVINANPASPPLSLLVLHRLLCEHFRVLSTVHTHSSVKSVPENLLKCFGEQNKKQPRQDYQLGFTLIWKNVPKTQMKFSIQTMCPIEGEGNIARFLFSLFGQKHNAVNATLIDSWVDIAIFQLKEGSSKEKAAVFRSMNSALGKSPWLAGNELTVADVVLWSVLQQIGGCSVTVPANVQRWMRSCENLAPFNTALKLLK
Description: Here, contransfected 293 cells were allowed to react with MG132 before immunoprecipitation analysis to prevent reduction of two proteins, and after performing SLCB050 treatment (10 μM, 6 hours), immunoprecipitation assay was performed on the cells by using Myc antibodies (DX2).
(§1) To address direct binding between the two proteins, agarose-bead conjugated GST (negative control) or GST-target protein was incubated with cell lysate or recombinant protein in radioimmunoprecipitation assay (RIPA) buffer (NaCl, 25 mM Tris-Cl, 1% NP-40, 1% sodium deoxycholate, 0.1% SDS, protease inhibitor mixture) for 1 hour at a temperature of 4° C. for a reaction.

[3] = biological target: T2, DX2-p14/ARF binding (His-DX2, GST-p14/ARF) (Homo sapiens, UniProt Q13155); assay: ELISA-based screening for inhibitors of DX2-p14/ARF binding; settings: ELISA values at 450 nm
T2 construct: made in house; host or cells: E. coli BL21(DE3) (stated for the GST fusion)
T2 sequence (Q13155 1-251 isoform Q13155-2): T1 sequence (Q13155 1-251 isoform Q13155-2)
Description: In detail, referring to drawings, the compound according to an embodiment of the present invention which is a specific binding inhibitor of DX2 and p14/ARF was screened by using an ELISA-based screening method of FIG. 1. Based on the screening reaction system, increases in ELISA values with increasing concentrations of p14/ARF were measured. […] Thus, by using the ELISA-based screening method, compounds that are specific binding inhibitors of DX2 and p14/ARF were primarily screened.
That is, 0.5% His-DX2 recombinant proteins were immobilized on a 96-well plate with paraformaldehyde (PFA). After performing drying and cleaning processes, GST-p14/ARF proteins were allowed to react with a random compound (final concentration: 0.1 mM). After 1 hour, the plate was washed using TBS-T, and then, incubated with anti-GST antibodies (1:10,000, 30 minutes) and anti-mouse-IgG-HRP (1:50,000, 1 hour). After performing a washing process twice, the plate was incubated with 3,3′,5,5′-tetramethylbenzidine (TMB) solution (Calbiochem) and stop solution (1N H2SO4) for a reaction. Afterwards, by using an ELISA reader, values were measured at 450 nm, thereby selecting candidate drugs as DX2-p14/ARF binding inhibitors. […]

[4] = biological target: T3, DX2-p14/ARF binding (Homo sapiens, UniProt Q13155); assay: GST pull-down assay of DX2-p14/ARF binding; settings: FIG. 2A, 3A, 3D, 3E
T3 construct: made in house; host or cells: E. coli BL21(DE3) for GST-p14/ARF; DX2 from 'cell lysate or recombinant protein'
T3 sequence (Q13155 1-251 isoform Q13155-2): T1 sequence (Q13155 1-251 isoform Q13155-2)
Excerpt: Through GST pull-down assays, more specific binding inhibitors were selected among the previously screened candidate drugs as DX2-p14/ARF binding inhibitors. That is, a p14/ARF fragment (full-length) was ligated into EcoRI and Hind II sites of pGEX-TEV vector, which is a modified vector by adding a TEV protease cleavage site to pGEX-4T1. The recombinant proteins were then expressed in E. coli strain BL21(DE3) as GST-fusion proteins. The proteins were purified by glutathione affinity chromatography.
as §1

[5] = system: lung tumors of DK mice; assay: In vivo anticancer effect in DK mice (lung tumors)
Description: All experimental procedures using laboratory animals were approved by the animal care committee of Pusan National University. DX2 (C57/BL6) and K-RasLA2 (C57/BL6) mice were obtained from Dr. Kim, Sung-Hoon and Professor. Choi, Kang-Ryeol (Yonsei University), respectively, and double Tg mice were obtained by cross-breeding of DX2 and K-RasLA2 mice. Before experiment, all mice were maintained under temperature- and light-controlled conditions (20-23° C., 12 h/12 h light/dark cycle), and provided autoclaved food and water.
Every weeks, tumor volume and body weight were measured.
After dissection of mice, tissues were fixed using 10% formalin (in PBS) for 24 hours, and embedded in paraffin blocks according to a basic tissue processing procedure. For histological analysis, embedded tissues were cut for […] by Leica microtome (Wetzlar, Germany) and transferred onto adhesive-coated slides (Marienfeld laboratory glassware, Germany). After deparaffin and rehydration, sections were then stained with H&E for routine examination.
For IHC staining, rehydrated tissue sections were incubated with antibodies to Ki-67 (Abcam, ab15580), pan-keratin (Sigma, C2931), pro-surfactant C (Millipore, AB3786), NSE (DAKO, IS612), and HER2/Neu (DAKO, A0458) for a reaction. Antigen retrieval was performed using 10 mM sodium citrate (pH 6.0) twice at a temperature of 95° C. for 10 minutes each, and endogenous peroxidase activity was blocked with 3% […] for 10 min. Then, the slides were dehydrated following a standard procedure and sealed with cover glass using mounting solution. TUNEL reaction was done as described in the manual for In Situ Cell Death Detection Kit, POD (Hoffmann-La Roche Ltd, Basel, Swizerland).
To evaluate tumor incidence, lung tissues of each mouse was fixed and embedded in paraffin. 5 sections from each mouse were examined by 3 independent investigator, who counted tumor. In addition, tumor area was calculated by tumor occupied area in total lung area using photoshop software.

SMILES: CC1(C)Oc2cc3oc(=O)ccc3cc2C[C@@H]1OC(=O)/C=C/c1ccco1 [SLCB050, (7S)-(+)-3-(2-Furanyl)-acrylic acid, 8,8-dimethyl-2-oxo-6,7-dihydro-2H,8H-pyrano[3,2-g]chromen-7-yl-ester]
- viability of H128 cells [1]: reduced the viability of H128 cells in a dose-dependent manner
- binding between DX2 and AIMP2 [2]: binding between DX2 and AIMP2 was reduced
- ELISA reaction of DX2-p14/ARF binding [3]: considerably reduced
- inhibitory effect on DX2-p14/ARF binding [4]: completely blocked; also recorded: showed inhibitory effects on DX2-p14/ARF binding
- weight loss, combination ([5]; DK mice, SLCB050 10 mg/kg and Adriamycin 2.5 mg/kg): without significant weight loss
- tumor progression, combination ([5]; DK mice, SLCB050 10 mg/kg and Adriamycin 2.5 mg/kg, i.p., FIG. 10B, 10C): significantly suppressed tumor progression; also recorded: induced tumor regression
- DX2 level in vivo (western blot) ([5]; DK mice, SLCB050 treatment, FIG. 12A): reduction of DX2
- tumor volumes, combination ([5]; DK mice, combinational treatment with Adriamycin and SLCB050, FIG. 10C): reduced tumor volumes
- SCLC regions in lung tissue (H-E staining), combination ([5]; DK mice, combinational treatment with Adriamycin and SLCB050, FIG. 11): more obviously erased
- apoptotic tumor cells (TUNEL staining) ([5]; lung tissues of DK mice treated with Adriamycin and SLCB050 in combination, FIG. 12B, 12C): obviously increased apoptosis tumer cells
